From ChEMBL document CHEMBL1134487, “Design, synthesis, and biological evaluation of analogues of the antitumor agent, 2-(4-[(7-chloro-2-quinoxalinyl)oxy]phenoxy)propionic acid (XK469)” (2001)
Activity calls are given as the source filed them. No cut-off for these calls is given here.

What was measured:
[1] = tested on: Mus musculus; test: In vivo activity tested against C3H mice bearing mammary adenocarcinoma -17/ADR tumor measured as % treated/control calculated at 301 mg/kg (po); format: functional
[2] = tested on: Mus musculus; test: In vivo activity tested against C3H mice bearing mammary adenocarcinoma -17/ADR tumor measured as body weight loss at 301 mg/kg (po); format: functional
[3] = tested on: Mus musculus; test: In vivo activity tested against C3H mice bearing mammary adenocarcinoma -17/ADR tumor measured as activity rating at 301 mg/kg (po); format: functional
[4] = tested on: Mus musculus; test: In vivo activity tested against C3H mice bearing mammary adenocarcinoma -17/ADR tumor measured as log Kill value was based on tumors that grew at 301 mg/kg (po); format: functional, organism-based; parameters: dose 301 mg/kg
[5] = tested on: Mus musculus; test: In vivo antitumor activity against tumor […]; Inactive; format: functional, organism-based
[6] = tested on: Mus musculus; test: In vivo activity against C3H mice bearing panc-03 murine tumor; Inactive; format: functional, organism-based
[7] = tested on: Mus musculus; test: In vivo activity against transplanted Mam-16/C/Taxol tumors of mice; format: functional, organism-based
[8] = tested on: Mus musculus; test: In vivo activity against transplanted colon-51 tumors of mice; format: functional, organism-based
[9] = tested on: Mus musculus; test: In vivo activity against iv transplanted Leukemia L1210 tumors of mice; format: functional, organism-based
[10] = tested on: Mus musculus; test: In vivo activity against iv transplanted AML Leukemia 1498 tumors of mice; format: functional, organism-based
[11] = tested on: Mus musculus; test: In vivo activity against transplanted Panc-02 tumors of mice; format: functional, organism-based
[12] = tested on: Mus musculus; test: In vivo activity against transplanted colon-38 tumors of mice; format: functional, organism-based
[13] = tested on: Mus musculus; test: In vivo activity against transplanted colon-26 tumors of mice; format: functional, organism-based
[14] = tested on: Mus musculus; test: In vivo activity against transplanted Mam-16/C tumors of mice; format: functional, organism-based
[15] = tested on: Mus musculus; test: In vivo activity against transplanted Mam-17/Adr tumors of mice; format: functional, organism-based
[16] = tested on: Mus musculus; test: In vivo activity against transplanted Mam-17 tumors of mice; format: functional, organism-based
[17] = tested on: Mus musculus; test: In vivo activity against transplanted Mam-16/C/Adr tumors of mice; format: functional, organism-based
[18] = tested on: Mus musculus; test: In vivo activity against transplanted Squam lung-LC12 tumors of mice; format: functional, organism-based
[19] = tested on: Mus musculus; test: In vivo activity against transplanted Mel-B16 tumors of mice; format: functional, organism-based
[20] = tested on: Mus musculus; test: In vivo activity against transplanted Panc-03 tumors of mice; format: functional, organism-based
[21] = tested on: Mus musculus; test: In vivo activity against transplanted Mam-16/C/ Taxol tumors of mice; format: functional, organism-based
[22] = tested on: Mus musculus; test: In vivo activity against transplanted Mam-16/C/ Taxol tumors of mice; Not active; format: functional, organism-based
[23] = tested on: Mus musculus; test: In vivo activity tested against C3H mice bearing panc-03 murine tumor measured as body weight loss at 700 mg/kg (po); format: functional
[24] = tested on: Mus musculus; test: In vivo activity tested against C3H mice bearing panc-03 murine tumor measured as % treated/control calculated at 700 mg/kg (po); format: functional
[25] = tested on: Mus musculus; test: In vivo activity tested against C3H mice bearing panc-03 murine tumor measured as log Kill value was based on tumors that grew at 700 mg/kg (po); format: functional, organism-based; parameters: dose 700 mg/kg
[26] = tested on: Mus musculus; test: In vivo activity against iv transplanted AML Leukemia 1498 tumors of mice; Not active; format: functional, organism-based
[27] = species on record: Mus musculus; test: […] activity against C3H mice bearing panc-03 murine tumor; Inactive; format: functional, organism-based

## C[C@@H](Oc1ccc(Oc2cnc3ccc(Cl)cc3n2)cc1)C(=O)O [R(+)XK469]
[1]
  T/C: 2%
[2]
  Body weight loss: -8%
[3]
  Activity rating: >2.8
[4]
  Log kill: 2.9

## CC(Oc1ccc(-c2ccc(Oc3cnc4ccc(Cl)cc4n3)cc2)cc1)C(=O)O (configuration not stated)
[5]
  NA: inactive

## CC(Oc1ccc(Oc2cnc3ccc(Cl)cc3n2)cc1)C(=O)NO (configuration not stated)
[6]
  NA: inactive

## CC(Oc1ccc(Nc2cnc3ccc(Cl)cc3n2)cc1)C(=O)O (configuration not stated)
[5]
  NA: inactive

## CC(Oc1cnc2ccc(Cl)cc2n1)C(=O)O (configuration not stated)
[5]
  NA: inactive

## COc1cccc2c1C(=O)c1c(O)c3c(c(O)c1C2=O)C[C@@](O)(C(=O)CO)C[C@@H]3O[C@H]1C[C@H](N)[C@H](O)[C@H](C)O1
[7]
  Log kill: 2.8
[8]
  Log kill: 0.7
[9]
  Log kill: 1.9
[10]
  Log kill: > 2.8
[11]
  Log kill: < 0.7
[12]
  Log kill: 1.9
[13]
  Log kill: 0.7
[14]
  Log kill: > 2.8
[15]
  Log kill: < 0.7
[16]
  Log kill: > 2.8
[17]
  Log kill: 0.7
[18]
  Log kill: > 2.8
[19]
  Log kill: 0.7
[20]
  Log kill: 2.8

## C[C@H](Oc1ccc(Oc2cnc3ccc(Cl)cc3n2)cc1)C(=O)O
[1]
  T/C: 0%
[2]
  Body weight loss: -3%
[3]
  Activity rating: >2.8
[4]
  Log kill: 2.7

## CC(=O)O[C@H]1C(=O)[C@@]2(C)[C@H]([C@H](OC(=O)c3ccccc3)[C@]3(O)C[C@H](OC(=O)[C@H](O)[C@@H](NC(=O)c4ccccc4)c4ccccc4)C(C)=C1C3(C)C)[C@]1(OC(C)=O)CO[C@@H]1C[C@@H]2O
[21]
  Log kill: < 0.7
[8]
  Log kill: 1.2
[9]
  Log kill: < 1
[10]
  Log kill: < 0.7
[11]
  Log kill: < 0.7
[12]
  Log kill: > 2.8
[13]
  Log kill: 0.7
[14]
  Log kill: > 2.8
[15]
  Log kill: < 0.7
[16]
  Log kill: > 2.8
[17]
  Log kill: < 0.7
[18]
  Log kill: < 0.7
[19]
  Log kill: 0.7
[20]
  Log kill: > 2.8

## O=c1[nH]cc(F)c(=O)[nH]1
[22]
  NA: inactive
[8]
  Log kill: < 0.7
[9]
  Log kill: 4.9
[10]
  Log kill: 1.2
[11]
  Log kill: < 0.7
[12]
  Log kill: 2.8
[13]
  Log kill: 1.9
[14]
  Log kill: 2.8
[15]
  Log kill: < 0.7
[16]
  Log kill: 1.2
[17]
  Log kill: 2.8
[18]
  Log kill: < 0.7
[19]
  Log kill: 1.9
[20]
  Log kill: 1.2

## CC(Oc1ccc(Oc2cnc3cc([N+](=O)[O-])ccc3n2)cc1)C(=O)O (configuration not stated)
[23]
  Body weight loss: -1.4%
[24]
  T/C: 41%
[25]
  Log kill: 0.42

## COc1cc([C@@H]2c3cc4c(cc3[C@@H](O[C@@H]3O[C@@H]5CO[C@@H](C)O[C@H]5[C@H](O)[C@H]3O)[C@H]3COC(=O)[C@H]23)OCO4)cc(OC)c1O
[21]
  Log kill: 1.2
[8]
  Log kill: 0.7
[9]
  Log kill: > 5
[11]
  Log kill: < 0.7
[12]
  Log kill: 1.9
[13]
  Log kill: < 0.7
[14]
  Log kill: 2.8
[15]
  Log kill: < 0.7
[16]
  Log kill: 1.9
[17]
  Log kill: < 0.7
[18]
  Log kill: > 2.8
[19]
  Log kill: < 0.7
[26]
  NA: inactive
[20]
  Log kill: 1.9

## CC(C#N)Oc1ccc(Oc2cnc3ccc(Cl)cc3n2)cc1 (configuration not stated)
[27]
  NA: inactive
